The test system of test [1] is platelet aggregation caused by arachidonic acid (platelet-rich plasma). Briefly: Platelet aggregation-inhibitory action, arachidonic acid (100 μM) induced, Born's turbidometric method. Format: cell-based, rabbit. The following applies: Oryctolagus cuniculus, 0.05 h, read-out: 50% inhibitory concentration, Arachidonic acid. As for the experimental part: (§1) Blood was drawn from the carotid artery of a rabbit using a syringe containing 3.8% solution of sodium citrate in an amount of […] per volume of the solution. The blood was centrifuged to obtain platelet-rich plasma (PRP: 5×10^5 platelets/μl).
(§2) In a cuvette was placed 250 μl of the PRP, which is warmed in a constant-temperature bath at 37° C. for 2 min. To the warmed cuvette was added 20 μl of a solution of an alkanolamine derivative to be tested (a […] ethanol solution which had been diluted with Trisbuffered isotonic saline solution). The mixture was then incubated for 3 min., followed by addition of a aggregation inducer, an arachidonic acid solution or a collagen solution. Measurement of the platelet aggregation was made by Born's turbidometric method (e.g., described in J. Physiol., Vol. 168, P. 178, 1968). The 50% inhibitory concentration for the platelet aggregation caused by arachidonic acid (100 μM) or collagen (20 μg/ml) is given in Table 1 with reference to Aspirin for comparison.
(§3) The 50% inhibitory concentration as shown in the table means the concentration of an alkanolamine derivative required for inhibiting aggregation ability of the platelets to 50% when the aggregation ability of the platelets in the absence of the alkanolamine derivative of the invention is taken as 100%.

The subject of test [2] is platelet aggregation caused by collagen (platelet-rich plasma). Briefly: Platelet aggregation-inhibitory action, collagen (20 μg/ml) induced, Born's turbidometric method. Format: cell-based, rabbit. To be noted: Oryctolagus cuniculus, 0.05 h, read-out: 50% inhibitory concentration, Collagen. As to the method:
as §1, §2, §3

Setting [3] is: rabbit PRP, 37° C., 3 min. incubation, arachidonic acid 100 μM.
Where [4] appears, read: rabbit PRP, 37° C., 3 min. incubation, collagen 20 μg/ml.

This note sets out measurements from patent publication US4619938A, “Fatty acid derivatives of aminoalkyl nicotinic acid esters and platelet aggregation inhibitors” (Terumo Kabushiki Kaisha, priority 1984, dated 1986).

Like-named read-outs stand apart in the source and are kept apart here.

`CC(=O)Oc1ccccc1C(=O)O` [Aspirin, reference compound]: the IC50 in test [1] worked out at 14 µM; in test [2], 13.6 µM.
As for `CC/C=C\C/C=C\C/C=C\C/C=C\C/C=C\CCCC(=O)NCCO` [Example 1, N-5,8,11,14,17-eicosapentaenoyl-2-aminoethanol], the IC50 was determined as 22 µM in test [1] (setting [3]) and 98 µM in test [2] (setting [4]).
The matching figures for `CC/C=C\C/C=C\C/C=C\C/C=C\C/C=C\CCCC(=O)OCCNC(=O)c1cccnc1` [Example 2, N-nicotinoyl-2-aminoethyl 5,8,11,14,17-eicosapentaenoate]: 11 µM and 93 µM.
The like results for `CC/C=C\C/C=C\C/C=C\CCCCCCCC(=O)OCCNC(=O)c1cccnc1` [Example 3, N-nicotinoyl-2-aminoethyl 9,12,15-octadecatrienoate] were, in that order, 49 µM and 140 µM.
The like results for `CCCCC/C=C\C/C=C\C/C=C\CCCCC(=O)OCCNC(=O)c1cccnc1` [Example 4, N-nicotinoyl-2-aminoethyl 6,9,12-octadecatrienoate] were, in that order, 36 µM and 190 µM.
Turning to `CC/C=C\C/C=C\C/C=C\C/C=C\C/C=C\CCCC(=O)NCCOC(=O)c1cccnc1` [Example 5, N-5,8,11,14,17-eicosapentaenoyl-2-aminoethyl nicotinate], the IC50 was 8.8 µM in test [1] (setting [3]) and 90 µM in test [2] (setting [4]).
The matching figures for `CC/C=C\C/C=C\C/C=C\C/C=C\C/C=C\CCCC(=O)N(CC)CCO` [Example 6, N-ethyl-N-5,8,11,14,17-eicosapentaenoyl-2-aminoethanol]: 3.57 µM and 273 µM.
The like results for `CC/C=C\C/C=C\C/C=C\C/C=C\C/C=C\CCCC(=O)N(CCO)CCCC` [Example 7, N-butyl-N-5,8,11,14,17-eicosapentaenoyl-2-aminoethanol] were, in that order, 3.55 µM and 187 µM.
For the compound `CC/C=C\C/C=C\C/C=C\C/C=C\C/C=C\CCCC(=O)N(C)CCOC(=O)c1cccnc1` [Example 8, N-methyl-N-5,8,11, 14,17-eicosapentaenoyl-2-aminoethylnicotinate], the results for the IC50 in test [1] (setting [3]) and in test [2] (setting [4]) were 6.62 µM and 111 µM, respectively.
The matching figures for `CC/C=C\C/C=C\C/C=C\CCCCCCCC(=O)N(C)CCOC(=O)c1cccnc1` [Example 9, N-methyl-N-9,12,15-octadecatrienoyl-2-aminoethylnicotinate]: 8.24 µM and 273 µM.
The like results for `CC/C=C\C/C=C\C/C=C\C/C=C\C/C=C\CCCC(=O)N(CC)CCOC(=O)c1cccnc1` [Example 10, N-ethyl-N-5,8,11,14,17-eicosapentaenoyl-2-aminoethylnicotinate] were, in that order, 4.99 µM and 91.7 µM.
The like results for `CC/C=C\C/C=C\C/C=C\C/C=C\C/C=C\CCCC(=O)N(CCCC)CCOC(=O)c1cccnc1` [Example 11, N-butyl-N-5,8,11,14,17-eicosapentaenoyl-2-aminoethylnicotinate] were, in that order, 6.03 µM and 197 µM.
In the case of `CC/C=C\C/C=C\C/C=C\C/C=C\C/C=C\CCCC(=O)NCCCOC(=O)c1cccnc1` [Example 12, N-5,8,11,14,17-eicosapentaenoyl-3-aminopropylnicotinate], the IC50 in test [1] (setting [3]) was determined as 3.44 µM; in test [2] (setting [4]), 55.3 µM.
The matching figures for `CC/C=C\C/C=C\C/C=C\C/C=C\C/C=C\CCCC(=O)OCCN(CC)C(=O)c1cccnc1` [Example 13, (N-ethyl-N-nicotinoyl-2-aminoethyl)-5,8,11,14,17-eicosapentaenoate]: 255 µM and 401 µM.
The like results for `CC/C=C\C/C=C\C/C=C\C/C=C\C/C=C\CCCC(=O)N(C)CCOCc1cccnc1` [Example 14, [N-methyl-N-(5,8,11,14,17-eicosapentaenoyl)-2-aminoethyl]-β-picolylether] were, in that order, 5.68 µM and 50.1 µM.
The matching figures for `CC/C=C\C/C=C\C/C=C\C/C=C\C/C=C\CCCC(=O)N(CCCC)CCOCc1cccnc1` [Example 15]: 7.07 µM and 123 µM.
For `CC/C=C\C/C=C\C/C=C\C/C=C\C/C=C\CCCC(=O)NCCOCc1cccnc1` [Example 16, (N-5,8,11,14,17-eicosapentaenoyl)-2-aminoethyl β-picolyl ether], the IC50 is 5.68 µM in test [1] (setting [3]) and 50.1 µM in test [2] (setting [4]).
The like results for `CC/C=C\C/C=C\C/C=C\CCCCCCCC(=O)NCCCOCc1cccnc1` [Example 17, (N-9,12,15-octadecatrienoyl)-3-aminopropyl β-picolylether] were, in that order, 7.07 µM and 123 µM.
